The first test concerns the target HPK1 (Homo sapiens, UniProt Q92918). Briefly: HPK1 Lantha Binding Assay ("Lanth"). The following applies: L = Lanth. As to the method: Example B2: HPK1 Lantha Binding Assay (“Lanth”)
For the reference compound, the top concentration was 1 mM. To the plate was added 10 μL 2 mM staurosporine in wells J1-P1 and A24-H24. A 11 point 5-fold compound serial dilution was performed using the Bravo liquid handling platform. […] The compound plate was centrifuged at 2500 rpm for 1 min. From the compound plate was transferred 80n1 of the compounds into an assay plate using the Echo liquid handler system. One compound plate makes two assay plates. Each assay plate is sealed and stored in an N2 cabinet.
The following assay concentrations and times were used: 2 nM HPK1, 2 nM Eu-Anti-GST Ab, and 15 nM Tracer222, with 60 min incubation time.
For the binding assay, 4 μL 2×HPK1 and Eu-anti-GST antibody were added to each well of the assay plate using a Multidrop reagent dispenser. The solutions were incubated in a 23 C incubator for 1 h. To each well of the assay plate was added 4 μL 2× Tracer-222 using a Multidrop reagent dispenser. The solutions were again incubated in a 23° C. incubator for 1 h. The results of the assay were read using an Envision plate reader with the following parameters: TR_FRET, 340ex/615 and 665em; […].
Compound Ki was analyzed using Morrison ki fit model in XL-fit
[formula] [formula] • b. Parameters: • E=enzyme concentration • S=Tracer222 concentration, Kd=Tracer222 Kd
All measurements are reported using the same units (nM).
Exemplary compounds were tested in the binding assays.
One may read the Ki as the dissociation constant of the complex between target and ligand, obtained from inhibition or displacement. Read a low Ki as a stronger hold on the target. `N#Cc1ccncc1-c1cc(N)c2nnc(NC(=O)[C@@H]3C[C@@H]3F)cc2c1` (racemic) [Compound 4, (+/−)-cis-N-(8-Amino-6-(4-cyanopyridin-3-yl)cinnolin-3-yl)-2-fluorocyclopropanecarboxamide] displayed a Ki of 600 nM.
Still for that read-out and setting: the figure for `Nc1cc(C2CC2)cc2cc(NC(=O)[C@@H]3C[C@@H]3F)nnc12` (racemic) [Compound 7, cis-N-(8-Amino-6-cyclopropylcinnolin-3-yl)-2-fluorocyclopropane carboxamide] is 600 nM.
The same measure, in the same setting: the figure for `Cc1cnsc1-c1cc(N)c2nnc(NC(=O)[C@@H]3C[C@@H]3F)cc2c1` (racemic) [Compound 15, (+/−)-cis-N-[8-Amino-6-(4-methylisothiazol-5-yl)cinnolin-3-yl]-2-fluoro-cyclopropanecarboxamide] is 3 nM; for `Cn1cc(-c2cc(N)c3nnc(NC(=O)[C@@H]4C[C@H]4C#N)cc3c2)cn1` (racemic) [Compound 19, (+/−)-trans-N-(8-Amino-6-(1-methyl-1H-pyrazol-4-yl)cinnolin-3-yl)-2-cyanocyclopropanecarboxamide] it is 14 nM.
On the same count and under the same terms, the same measure for `CCc1ccncc1-c1cc(N)c2nnc(NC(=O)[C@@H]3C[C@H]3C#N)cc2c1` (racemic) [Compound 20, (+/−)-trans-N-(8-Amino-6-(4-ethylpyridin-3-yl)cinnolin-3-yl)-2-cyanocyclopropanecarboxamide]: 13 nM; for `CCc1ccncc1-c1cc(N)c2nnc(NC(=O)[C@@H]3C[C@@H]3F)cc2c1` (racemic) [Compound 21, (+/−)-cis-N-(8-Amino-6-(4-ethylpyridin-3-yl)cinnolin-3-yl)-2-fluorocyclopropanecarboxamide]: 4 nM.
In the case of `Nc1cc(-c2cnccc2C2CC2)cc2cc(NC(=O)[C@@H]3C[C@@H]3F)nnc12` (racemic) [Compound 22, (+/−)-cis-N-(8-Amino-6-(4-cyclopropylpyridin-3-yl)cinnolin-3-yl)-2-fluorocyclopropanecarboxamide], the affinity corresponds to a Ki of 31 nM.
The same measure, in the same setting: the same measure for `Cc1c(N)cncc1-c1cc(N)c2nnc(NC(=O)[C@@H]3C[C@H]3C#N)cc2c1` (single isomer, unassigned) [Compound 23a]: 0.7 nM; for `Cc1c(N)cncc1-c1cc(N)c2nnc(NC(=O)[C@H]3C[C@@H]3C#N)cc2c1` (single isomer, unassigned) [Compound 23b]: 4 nM.
On the same count and under the same terms, the figure for `COc1ccncc1-c1cc(N)c2nnc(NC(=O)[C@@H]3C[C@@H]3F)cc2c1` [Compound 2a, (1S,2S)—N-(8-Amino-6-(4-methoxypyridin-3-yl)cinnolin-3-yl)-2-fluorocyclopropanecarboxamide] is 58 nM; for `Cc1cc(N)ncc1-c1cc(N)c2nnc(NC(=O)[C@@H]3C[C@@H]3F)cc2c1` [Compound 5a, (1S,2S)—N-(8-Amino-6-(6-amino-4-methylpyridin-3-yl)cinnolin-3-yl)-2-fluorocyclopropanecarboxamide] it is 15 nM.
`CCc1cc(N)c2nnc(NC(=O)[C@@H]3C[C@@H]3F)cc2c1` [Compound 6a, (1S,2S)-N-(8-Amino-6-ethylcinnolin-3-yl)-2-fluorocyclopropanecarboxamide] had a Ki of 440 nM.
`CC(C)OC(=O)Nc1cc2cc(-c3cnn(C)c3)cc(N)c2nn1` [Compound 9, Isopropyl N-[8-amino-6-(1-methylpyrazol-4-yl)cinnolin-3-yl]carbamate] registered a Ki of 28 nM.
Same read-out and setting: the same measure for `Cn1cc(-c2cc(N)c3nnc(NC(=O)N4CCCC4)cc3c2)cn1` [Compound 10, N-[8-Amino-6-(1-methylpyrazol-4-yl)cinnolin-3-yl]pyrrolidine-1-carboxamide]: 65 nM; for `CCc1ccncc1-c1cc(N)c2nnc(NC(=O)NC(C)C)cc2c1` [Compound 11, 1-[8-Amino-6-(4-ethyl-3-pyridyl)cinnolin-3-yl]-3-isopropyl-urea]: 8 nM; for `Cc1cnccc1-c1cc(N)c2nnc(NC(=O)[C@@H]3C[C@@H]3F)cc2c1` [Compound 17a, (1S,2S)—N-(8-Amino-6-(3-methylpyridin-4-yl)cinnolin-3-yl)-2-fluorocyclopropanecarboxamide]: 53 nM.
On the same count and under the same terms, the same measure for `Cn1cc(-c2cc(N)c3nnc(NC(=O)[C@@H]4C[C@@H]4F)cc3c2)cn1` [Compound 18a, (1S,2S)—N-(8-Amino-6-(1-methyl-1H-pyrazol-4-yl)cinnolin-3-yl)-2-fluorocyclopropanecarboxamide]: 15 nM.
The same measure, in the same setting: the same measure for `Cc1ccncc1-c1cc(C)c2nnc(NC(=O)C3CC3)cc2c1` [Compound 24, N-(8-Methyl-6-(4-methylpyridin-3-yl)cinnolin-3-yl)cyclopropanecarboxamide]: 260 nM.
The molecule `Cc1ccncc1-c1cc(N)c2nnc(NC(=O)C3CC3)cc2c1` [Compound 25, N-(8-Amino-6-(4-methylpyridin-3-yl)cinnolin-3-yl)cyclopropanecarboxamide] yielded a Ki of 1.9 nM.
Same read-out and setting: the same measure for `Cc1ccncc1-c1cc(Cl)c2nnc(NC(=O)C3CC3)cc2c1` [Compound 26, N-(8-Chloro-6-(4-methylpyridin-3-yl)cinnolin-3-yl)cyclopropanecarboxamide]: more than 1000 nM; for `Cc1ccncc1-c1ccc2nnc(NC(=O)C3CC3)cc2c1` [Compound 27, N-(6-(4-Methylpyridin-3-yl)cinnolin-3-yl)cyclopropanecarboxamide]: 510 nM.

The target of another test is HPK full length, T165E S171E (Homo sapiens (Human), UniProt Q92918, S171E/T165E). The experiment in a line: HPK1-FL HTRF Enzymatic Assay ("HTRF"). The format is biochemical. The conditions noted are these: H = HTRF; ATP 1 mM. As to the method: Example BI: HPK1-FL HTRF Enzymatic Assay (“HTRF”)
HPK full length, T165E S171E, sequence (Q92918 whole entry T165E/S171E): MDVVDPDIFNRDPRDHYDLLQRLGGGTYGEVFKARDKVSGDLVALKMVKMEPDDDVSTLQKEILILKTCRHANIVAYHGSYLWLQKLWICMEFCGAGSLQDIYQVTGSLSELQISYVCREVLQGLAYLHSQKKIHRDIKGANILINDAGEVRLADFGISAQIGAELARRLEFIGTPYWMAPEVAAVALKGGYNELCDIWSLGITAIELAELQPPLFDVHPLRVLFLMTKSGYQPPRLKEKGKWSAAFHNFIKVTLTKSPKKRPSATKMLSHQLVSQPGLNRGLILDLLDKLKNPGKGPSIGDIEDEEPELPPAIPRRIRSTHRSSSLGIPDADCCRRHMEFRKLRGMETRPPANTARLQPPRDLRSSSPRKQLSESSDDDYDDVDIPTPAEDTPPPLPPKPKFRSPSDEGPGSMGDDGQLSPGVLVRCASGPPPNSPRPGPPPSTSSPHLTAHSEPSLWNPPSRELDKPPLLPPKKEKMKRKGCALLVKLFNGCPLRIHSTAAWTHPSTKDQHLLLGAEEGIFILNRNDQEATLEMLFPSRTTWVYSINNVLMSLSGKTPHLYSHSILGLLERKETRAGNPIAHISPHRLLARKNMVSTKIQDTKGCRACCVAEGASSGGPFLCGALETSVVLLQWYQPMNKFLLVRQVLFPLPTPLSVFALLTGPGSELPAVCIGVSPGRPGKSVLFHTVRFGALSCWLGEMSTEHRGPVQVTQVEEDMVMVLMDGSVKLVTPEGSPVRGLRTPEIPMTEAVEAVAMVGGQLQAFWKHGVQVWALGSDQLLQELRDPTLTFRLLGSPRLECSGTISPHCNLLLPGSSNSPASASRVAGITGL
HPK-FL enzyme phosphorylates Biotin-SLP-76 substrate in the presence of ATP at 1 mM and varying concentrations of test compound. Product is detected by FRET using Eu-anti-pSLP76 Ab and SA-XL665. Also see www.cisbio.com/HTRF for additional HTRF technology information.
• Assay plate: White ProxiPlate 384 F (PerkinElmer cat #6008289) • Kinase: HPK full length double mutant • Substrate: Biotin-SLP76 • ATP: 100 mM ATP • BSG: 2% BSG • DMSO: DMSO (Sigma cat #34869-100ML) • Reaction Buffer: H2O/50 mM HEPES, pH 7.5/10 mM MgCl2/2 mM TCEP/0.01% Brij-35/0.01% BSG • Detection mix: Eu-anti-pSLP76/SA-XL665 (Cisbio, #610SAXAC)
To a 384 well Proxiplate with 80 nL compound or DMSO spotted on was added 4 μl/well kinase mix. The mixture was preincubated for 30 minutes and then 4 μl/well substrate mix was added. The solution was incubated for 60 min and then 4 μl/well detection mix was added. The solution was incubated for another 60 min. The plates were then loaded onto a Perkin Elmer Envision and the TR-FRET signal was measured at 615 and 665 nm. A ratio of […] was used to calculate the % activity at each concentration of compound.
In general terms: In TR-FRET formats the signal depends on donor and acceptor labels being close together.
In the case of `Cc1c(N)cncc1-c1ccc2nnc(Nc3cc4n(n3)CC(=O)N(C(C)C)CC4)cc2c1` [Compound 28, 2-((6-(5-Amino-4-methylpyridin-3-yl)cinnolin-3-yl)amino)-6-isopropyl-5,6-dihydro-4H-pyrazolo[1,5-d][1,4]diazepin-7(8H)-one], the affinity corresponds to a Ki of 40 nM.
On the same count and under the same terms, the same measure for `Cc1c(N)cncc1-c1cc(N)c2nnc(Nc3cc4n(n3)CC(=O)N(C(C)C)CC4)cc2c1` [Compound 29, 2-((8-Amino-6-(5-amino-4-methylpyridin-3-yl)cinnolin-3-yl)amino)-6-isopropyl-5,6-dihydro-4H-pyrazolo[1,5-d][1,4]diazepin-7(8H)-one]: 0.098 nM.

Another test has as its system primary human pan T cells. Briefly: Human T-cell IL2 Induction Assay. In kind it is cell-based. The following applies: assayed concentration 2.78 μM; anti-CD3/anti-CD28 stimulation. The procedure: Example B3: Human T-cell IL2 Induction Assay
Assay Principle: Anti-CD3 and anti-CD28 activates TCR signaling in primary human pan T cells leading to IL-2 promoter induction. Secreted IL-2 in cell culture supernatant is detected by electrochemiluminescence using a capture antibody against IL-2 and an anti-IL-2 antibody labeled with SULFO-tag. Also see www.mesoscale.com for additional electrochemiluminescence technology information.
Assay Procedure: Incubate primary human pan T cells with varying concentrations of test compounds for 30 minutes in a humidified incubator at 37° C. and 5% CO2. Transfer cells to a plate pre-coated with a fixed concentration of anti-human CD3 (determined separately for each donor lot) and add soluble anti-human CD28 (final concentration=1 μg/ml). Stimulate cells in a humidified incubator at 37° C. and 5% CO2 for 4 hours. Transfer 25 μl of supernatant to a MSD single spot plate pre-coated with an anti-human IL-2 antibody. Incubate MSD plate overnight at 4° C. with gentle shaking. Wash MSD plate 4× with wash buffer. […] Wash MSD plate 4× with wash buffer and add 150 μl 2×MSD read buffer. Read on an MSD instrument. […]
Exemplary compounds of Formula (I) were tested in the human T-cell IL-2 induction assays. The % increase measured for IL-2 in cells treated by the test compounds relative to untreated cells are provided in Table B2 for certain compounds.
`Cc1c(N)cncc1-c1cc(N)c2nnc(NC(=O)[C@@H]3C[C@H]3C#N)cc2c1` (single isomer, unassigned) [Compound 23a]: the “% IL-2 increase relative to untreated cells” value is recorded as 538%.

The test is the same for the next values; noted with them: assayed concentration 8.33 μM; anti-CD3/anti-CD28 stimulation.
As for `Cc1ccncc1-c1cc(N)c2nnc(NC(=O)C3CC3)cc2c1` [Compound 25, N-(8-Amino-6-(4-methylpyridin-3-yl)cinnolin-3-yl)cyclopropanecarboxamide], the “% IL-2 increase relative to untreated cells” value turned out to be 192%.

These data come from US20240368170A1, “CINNOLINE COMPOUNDS AND USES THEREOF” (Genentech, Inc., priority 2018, published 2024).
